Patent EP0589039A1, “[…] DERIVATIVE AND PHARMACEUTICAL PREPARATION CONTAINING THE SAME” (Asahi Kasei Kogyo Kabushiki Kaisha, priority 1991, dated 1992)
Where two headings read alike, the source gives them in different places.

Tests used:
[1] = tested on: human breast cancer cultured cell line ZR-75-1; assay: Growth inhibition of human breast cancer cultured cell line ZR-75-1 (Methylene Blue staining); type: cell-based; details: 120 h, ZR-75-1, 10⁻⁹ mole of estrogen, 5 days, read-out: IC₅₀
Experimental: Effect of the triphenylalkene derivative of the present invention on breast cancer were examined using a human breast cancer cultured cell line ZR-75-1. Predetermined dilutions of each triphenylalkene derivative of the present invention were added to a 96 well microtiter plate purchased from Falcon, and the cancer cells were inoculated into each well with a inoculum size of 2 x 10³ cells per well. The thus prepared plate was supplied with RPMI 1640 medium which has been supplemented with 10% of fetal bovine serum and further with 10⁻⁹ mole of estrogen, and incubated at 37°C for 5 days in the presence of 5% CO₂. Thereafter, viable cells were fixed with glutaraldehyde, stained with Methylene Blue and then extracted with 0.33 N of hydrochloric acid to measure absorbance at 665 nm. […]

[2] = tested on: human breast cancer cell line MCF-7; assay: Growth inhibition of human breast cancer cell MCF-7 (Methylene Blue staining); type: cell-based; details: read-out: Growth inhibition of MCF-7 (human breast cancer cells) (IC₅₀)
Experimental: (Growth inhibition of human breast cancer cell MCF-7)
Effect of the compound of the present invention on breast cancer were examined using a human breast cancer cell line MCF-7. Predetermined dilutions of each compound of the present invention were added to a 96 well microtiter plate purchased from Falcon, and the cancer cells were inoculated into each well with a inoculum size of 10³ cells per well (10⁴ cells in the case of 100 nM estrogen (E)). The thus prepared plate was supplied with RPMI 1640 medium which has been supplemented with 5% of fetal bovine serum and further with a predetermined amount of estrogen, and incubated at 37°C for 6 days (3 days in the case of 100 nM estrogen) in the presence of 5% CO₂. Thereafter, viable cells were fixed with glutaraldehyde and stained with Methylene Blue to measure absorbance at 665 nm.

osteoporosis model rats = assay: Inhibition of decrease in bone density in ovariectomized osteoporosis model rats; type: in vivo, Fisher rats; details: 400 µg/kg orally once a day for 4 months
Experimental: Effect of the compound of the present invention to inhibit decrease in the bone density was evaluated using osteoporosis model rats. […] The remaining 8 rats were subjected to sham operation and used as a control group (Group C). […] After completion of the administration, the left side femur of each rat was excised to measure its volume (V) and dry weight (W) to calculate a bone density (D) based on a formula, D = W/V [formula] . […]

[3] = MCF7, 144 h, 1 nM added amount of E (estrogen), 6 days
[4] = MCF7, 72 h, 100 nM added amount of E (estrogen), 3 days, 10⁴ cells per well
[5] = MCF7, 144 h, 0.1 nM added amount of E (estrogen), 6 days

| SMILES | IC50 [2, 3] | also measured |
| --- | --- | --- |
| CCNCC(O)COc1ccc(C(=C(CC)c2ccc3c(c2)OCO3)c2ccc(O)cc2)cc1 (stereo not drawn) [Compound 11, (E·Z)-1-[4-(3-ethylamino-2-hydroxypropoxy)-phenyl]-1-(4-hydroxyphenyl)-2-(3,4-methylenedioxyphenyl)-1-butene] | 50 nM | IC50 [1]: 1600 nM |
| CCC(=C(c1ccccc1)c1ccc(OC(CN(CC)CC)CN(CC)CC)cc1)c1ccccc1 [Compound 36] | 1600 nM |  |
| CCC(=C(c1ccc(O)cc1)c1ccc(OCC(O)CNC2CCCCC2)cc1)c1ccccc1 (stereo not drawn) [Compound 8, (E·Z)-1-[4-(3-cyclohexylamino-2-hydroxypropoxy)-phenyl]-1-(4-hydroxyphenyl)-2-phenyl-1-butene] | 620 nM | IC50 [1]: 1400 nM |
| CCC(=C(c1ccc(O)cc1)c1ccc(OCCNC2CCCCC2)cc1)c1ccc2c(c1)OCO2 [Compound 19, (E·Z)-1-[4-(2-cyclohexylaminoethoxy)phenyl]-1-(4-hydroxyphenyl)-2-(3,4-methylenedioxyphenyl)-1-butene] | 160 nM |  |
| CCC(=C(c1ccc(O)cc1)c1ccc(OCC(O)CN(CC)CC)cc1)c1ccc2c(c1)OCO2 (stereo not drawn) [Compound 2, (E·Z)-1-[4-(3-diethylamino-2-hydroxypropoxy)-phenyl]-1-(4-hydroxyphenyl)-2-(3,4-methylenedioxyphenyl)-1-butene] | 60 nM |  |
| CCC(=C(c1ccc(O)cc1)c1ccc(OC(CN(C)C)CN(C)C)cc1)c1ccc2c(c1)OCO2 [Compound 18, (E·Z)-1-[4-(1,3-bisdimethylamino-2-propoxy)-phenyl]-1-(4-hydroxyphenyl)-2-(3,4-methylenedioxyphenyl)-1-butene] | 430 nM |  |
| CCC(=C(c1ccccc1)c1ccc(OCC(O)CNC2CCCC2)cc1)c1ccccc1 (stereo not drawn) [Compound 40] |  | IC50 [2, 4]: 2700 nM |
| CC/C(=C(\c1ccccc1)c1ccc(OCC(O)CNC(C)C)cc1)c1ccccc1 (stereo not drawn) [Compound 14, (Z)-1-[4-(3-isopropylamino-2-hydroxypropoxy)-phenyl]-1,2-diphenyl-1-butene] |  | IC50 [2, 5]: 410 nM |
| CC/C(=C(\c1ccccc1)c1ccc(OCC(O)CN(C)C)cc1)c1ccc2c(c1)OCO2 (stereo not drawn) [Compound 6, (Z)-1-[4-(3-dimethylamino-2-hydroxypropoxy)-phenyl]-1-phenyl-2-(3,4-methylenedioxyphenyl)-1-butene] | 1800 nM |  |
| CCC(=C(c1ccccc1)c1ccc(OCC(O)CN(C)C)cc1)c1ccc2c(c1)OCO2 (stereo not drawn) [Compound 34] | 6300 nM | IC50 [2, 4]: 10200 nM |
| CCC(=C(c1ccccc1)c1ccc(OCC(O)CN(C)CC)cc1)c1ccc2c(c1)OCO2 (stereo not drawn) [Compound 33] |  | IC50 [2, 5]: 600 nM |
| CCNCC(O)COc1ccc(/C(=C(/CC)c2ccccc2)c2ccccc2)cc1 (stereo not drawn) [Compound 13, (Z)-1-[4-(3-ethylamino-2-hydroxypropoxy)phenyl]-1,2-diphenyl-1-butene] | 5400 nM |  |
| CCC(=C(c1ccc(O)cc1)c1ccc(OCC(CN(C)C)OC(C)=O)cc1)c1ccc2c(c1)OCO2 (stereo not drawn) [Compound 16, (E·Z)-1-[4-(3-dimethylamino-2-acetoxypropoxy)-phenyl]-1-(4-hydroxyphenyl)-2-(3,4-methylenedioxyphenyl)-1-butene] | 160 nM |  |
| CCC(=C(c1ccc(O)cc1)c1ccc(OCC(O)CN(C)C)cc1)c1ccccc1 (stereo not drawn) [Compound 7, (E·Z)-1-[4-(3-dimethylamino-2-hydroxypropoxy)-phenyl]-1-(4-hydroxyphenyl)-2-phenyl-1-butene] | 210 nM |  |
| CCC(=C(c1ccc(C=NOC)cc1)c1ccc(OCCN(C)C)cc1)c1ccccc1 [Compound 22, 2-[4-[1-(4-methoxyiminomethylphenyl)-2-phenyl-1-butenyl]phenoxy]-N,N-dimethylamine] | 7100 nM |  |
| CCC(=C(c1ccccc1)c1ccc(OC(CN(C)C)CN(C)C)cc1)c1ccccc1 [Compound 35] | 1900 nM |  |

| SMILES | IC50 [2, 3] | also measured |
| --- | --- | --- |
| CCC(=C(c1ccc(O)cc1)c1ccc(OCC(O)CN(C)CC)cc1)c1ccc2c(c1)OCO2 (stereo not drawn) [Compound 3, (E·Z)-1-[4-(3-ethylmethylamino-2-hydroxypropoxy)phenyl]-1-(4-hydroxyphenyl)-2-(3,4-methylenedioxyphenyl)-1-butene] | 100 nM |  |
| CCC(=C(c1ccc(OCCN(C)C)cc1)c1cccc(C=NO)c1)c1ccccc1 [Compound 23, 2-[4-[1-(3-hydroxyiminomethylphenyl)-2-phenyl-1-butenyl]phenoxy]-N,N-dimethylamine] | 6800 nM |  |
| CCC(=C(c1ccccc1)c1ccc(OCC(O)CN(C)C)cc1)c1ccccc1 (stereo not drawn) [Compound 30] | 3300 nM |  |
| CCC(=C(c1ccc(C=NO)cc1)c1ccc(OCCN(C)C)cc1)c1ccccc1 [Compound 21, 2-[4-[1-(4-hydroxyiminomethylphenyl)-2-phenyl-1-butenyl]phenoxy]-N,N-dimethylethylamine] | 4600 nM |  |
| CCC(=C(c1ccccc1)c1ccc(OCC(O)CNC2CCCCC2)cc1)c1ccc2c(c1)OCO2 (stereo not drawn) [Compound 38] |  | IC50 [2, 5]: 210 nM |
| CCC(=C(c1ccc(O)cc1)c1ccc(OCC(O)CNC)cc1)c1ccc2c(c1)OCO2 (stereo not drawn) [Compound 10, (E·Z)-1-[4-(3-methylamino-2-hydroxypropoxy)-phenyl]-1-(4-hydroxyphenyl)-2-(3,4-,methylenedioxyphenyl)-1-butene] | 500 nM | IC50 [1]: 870 nM |
| CC/C(=C(\c1ccccc1)c1ccc(OCC(O)CNC2CCCCC2)cc1)c1ccccc1 (stereo not drawn) [Compound 12, (Z)-1-[4-(3-cyclohexylamino-2-hydroxypropoxy)-phenyl]-1,2-diphenyl-1-butene] | 1200 nM | IC50 [1]: 1400 nM |
| CCC(=C(c1ccc(O)cc1)c1ccc(OCC(O)CN(C)C)cc1)c1ccc2c(c1)OCO2 (stereo not drawn) [Compound 1, (E·Z)-1-[4-(3-dimethylamino-2-hydroxypropoxy)-phenyl]-1-(4-hydroxyphenyl)-2-(3,4-methylenedioxyphenyl)-1-butene] |  | inhibition of decrease in the bone density caused by the ovariectomy (osteoporosis model rats; compared with Tamoxifen): significantly inhibited decrease in the bone density; Bone density (osteoporosis model rats; left femur, D = W/V, ovariectomized rats): 1.0312 |
| CCC(=C(c1ccccc1)c1ccc(OCC(O)CNC2CCCCC2)cc1)c1ccccc1 (stereo not drawn) [Compound 39] |  | IC50 [2, 4]: 5600 nM |
| CCC(=C(c1ccc(O)cc1)c1ccc(OCC(O)CNC2CCCCC2)cc1)c1ccc2c(c1)OCO2 (stereo not drawn) [Compound 9, (E·Z)-1-[4-(3-cyclohexylamino-2-hydroxypropoxy)-phenyl]-1-(4-hydroxyphenyl)-2-(3,4-,methylenedioxyphenyl)-1-butene] | 460 nM | IC50 [1]: 950 nM |
| CCC(=C(c1ccc(OCOC)cc1)c1ccc(OCC(O)CN(C)C)cc1)c1ccc2c(c1)OCO2 (stereo not drawn) [Compound 32] |  | IC50 [2, 4]: 3800 nM |
| CCC(=C(c1ccc(OCC(CN(C)C)OC(C)=O)cc1)c1ccc(OC(C)=O)cc1)c1ccc2c(c1)OCO2 (stereo not drawn) [Compound 15, (E·Z)-1-[4-(3-dimethylamino-2-acetoxypropoxy)-phenyl]-1-(4-acetoxyphenyl)-2-(3,4-methylenedioxyphenyl)-1-butene] | 310 nM |  |
| CCC(=C(c1ccccc1)c1ccc(OCC(O)CNC2CCC2)cc1)c1ccccc1 (stereo not drawn) [Compound 41] |  | IC50 [2, 4]: 3400 nM |
| CCC(=C(c1ccc(O)cc1)c1ccc(OC(CN(CC)CC)CN(CC)CC)cc1)c1ccc2c(c1)OCO2 [Compound 37] | 60 nM |  |
| CCC(=C(c1ccc(O)cc1)c1ccc(OCCN(C)C)cc1)c1ccc2c(c1)OCO2 [Compound 20, (E·Z)-1-[4-(2-dimethylaminoethoxy)phenyl]-1-(4-hydroxyphenyl)-2-(3,4-methylenedioxyphenyl)-1-butene] | 190 nM |  |
| CCC(=C(c1ccc(O)cc1)c1ccc(OCC(O)CN(C)C2CCCCC2)cc1)c1ccc2c(c1)OCO2 (stereo not drawn) [Compound 4, (E·Z)-1-[4-(3-cyclohexylmethylamino-2-hydroxypropoxy)phenyl]-1-(4-hydroxyphenyl)-2-(3,4-methylenedioxyphenyl)-1-butene] | 210 nM |  |
